From patent publication US8536354B2, “Steroidal ligands and their use in gene switch modulation” (Intrexon Corporation, priority 2008, dated 2013)
Where two headings read alike, the source gives them in different places.

What was measured:
[1] = molecular target: T1, TmEcR (GAL4-EcR DEF with VP16-RXR partner) (Tenebrio molitor, UniProt O02035); test: Two-hybrid gene switch assay, luciferase reporter, TmEcR, mouse NIH3T3 cells
T1 sequence (O02035 194-491): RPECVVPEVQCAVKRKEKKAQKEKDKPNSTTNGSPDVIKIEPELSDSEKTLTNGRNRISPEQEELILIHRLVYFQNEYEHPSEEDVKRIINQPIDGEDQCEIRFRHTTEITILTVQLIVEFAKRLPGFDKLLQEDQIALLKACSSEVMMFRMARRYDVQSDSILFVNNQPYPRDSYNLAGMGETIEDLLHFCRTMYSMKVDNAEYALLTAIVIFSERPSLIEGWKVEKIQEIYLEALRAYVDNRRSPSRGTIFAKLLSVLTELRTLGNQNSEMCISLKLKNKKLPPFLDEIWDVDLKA
T1 sequence (P28704 1-520 partner): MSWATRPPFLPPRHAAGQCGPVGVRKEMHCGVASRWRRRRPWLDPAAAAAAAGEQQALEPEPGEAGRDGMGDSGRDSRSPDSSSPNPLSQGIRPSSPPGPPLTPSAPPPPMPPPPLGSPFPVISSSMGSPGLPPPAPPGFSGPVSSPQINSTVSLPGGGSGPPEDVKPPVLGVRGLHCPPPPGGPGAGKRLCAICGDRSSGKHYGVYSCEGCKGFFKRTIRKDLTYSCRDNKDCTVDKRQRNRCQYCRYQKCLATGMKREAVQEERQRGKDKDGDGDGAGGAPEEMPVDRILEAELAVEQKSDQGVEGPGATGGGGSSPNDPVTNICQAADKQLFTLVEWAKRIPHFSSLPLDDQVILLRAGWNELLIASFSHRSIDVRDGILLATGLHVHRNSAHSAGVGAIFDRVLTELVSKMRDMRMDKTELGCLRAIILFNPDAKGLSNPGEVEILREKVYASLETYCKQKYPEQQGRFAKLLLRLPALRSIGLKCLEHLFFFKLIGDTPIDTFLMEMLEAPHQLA

[2] = molecular target: T2, wild-type CfEcR (GAL4-CfEcR-DEF with VP16-RXR-USP chimera) (Choristoneura fumiferana, UniProt O77255); test: Two-hybrid gene switch assay, luciferase reporter, wild-type CfEcR, mouse NIH3T3 cells
T2 sequence (O77255 219-541): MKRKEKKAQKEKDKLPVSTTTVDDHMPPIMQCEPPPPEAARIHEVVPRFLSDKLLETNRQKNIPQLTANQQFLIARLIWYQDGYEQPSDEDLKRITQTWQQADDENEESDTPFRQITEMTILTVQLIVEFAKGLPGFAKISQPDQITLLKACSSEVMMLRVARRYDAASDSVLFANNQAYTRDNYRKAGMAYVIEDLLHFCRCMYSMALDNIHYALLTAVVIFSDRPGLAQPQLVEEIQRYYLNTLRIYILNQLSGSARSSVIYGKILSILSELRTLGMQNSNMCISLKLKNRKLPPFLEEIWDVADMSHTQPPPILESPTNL
T2 sequence (P28702 1-533 partner): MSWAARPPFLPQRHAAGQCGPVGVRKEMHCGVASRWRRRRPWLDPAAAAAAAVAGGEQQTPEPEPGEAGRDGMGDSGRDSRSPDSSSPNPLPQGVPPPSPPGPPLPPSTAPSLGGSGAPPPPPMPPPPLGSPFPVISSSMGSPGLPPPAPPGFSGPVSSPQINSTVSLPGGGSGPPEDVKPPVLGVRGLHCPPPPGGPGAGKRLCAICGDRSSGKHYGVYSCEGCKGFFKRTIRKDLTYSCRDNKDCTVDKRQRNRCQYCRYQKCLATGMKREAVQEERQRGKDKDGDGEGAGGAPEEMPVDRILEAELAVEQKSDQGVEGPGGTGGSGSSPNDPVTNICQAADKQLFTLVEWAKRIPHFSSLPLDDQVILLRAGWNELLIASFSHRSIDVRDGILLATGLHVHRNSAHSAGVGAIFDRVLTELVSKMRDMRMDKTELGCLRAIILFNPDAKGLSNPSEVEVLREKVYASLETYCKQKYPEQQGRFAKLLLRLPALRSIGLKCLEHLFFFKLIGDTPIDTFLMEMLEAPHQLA

[3] = molecular target: T3, MsEcR (GAL4-EcR DEF with VP16-RXR-USP chimera) (Manduca sexta, UniProt P49883); test: Two-hybrid gene switch assay, luciferase reporter, MsEcR, mouse NIH3T3 cells
T3 sequence (P49883 1-556): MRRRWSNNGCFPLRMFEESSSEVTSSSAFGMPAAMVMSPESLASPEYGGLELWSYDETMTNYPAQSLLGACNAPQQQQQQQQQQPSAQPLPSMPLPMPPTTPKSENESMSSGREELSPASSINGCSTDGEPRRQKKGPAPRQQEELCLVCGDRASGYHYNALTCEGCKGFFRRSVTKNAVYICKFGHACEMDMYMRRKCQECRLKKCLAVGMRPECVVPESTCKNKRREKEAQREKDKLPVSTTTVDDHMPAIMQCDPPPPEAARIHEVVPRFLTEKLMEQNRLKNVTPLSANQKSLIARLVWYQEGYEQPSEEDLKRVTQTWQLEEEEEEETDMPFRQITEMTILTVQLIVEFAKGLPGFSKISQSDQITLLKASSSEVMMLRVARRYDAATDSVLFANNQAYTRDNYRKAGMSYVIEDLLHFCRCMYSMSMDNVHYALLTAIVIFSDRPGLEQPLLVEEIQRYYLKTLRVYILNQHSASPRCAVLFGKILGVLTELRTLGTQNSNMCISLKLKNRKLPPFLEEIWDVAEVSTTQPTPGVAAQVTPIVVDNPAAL
T3 sequence (P28702 1-533 partner): T2 sequence (P28702 1-533 partner)

[4] = molecular target: wild-type Aedes aegypti EcR (AaEcR; GAL4-EcR DEF with VP16-RXR-USP chimera) (Aedes aegypti, UniProt P49880); test: Two-hybrid gene switch assay, luciferase reporter, wild-type AaEcR, mouse NIH3T3 cells; format: cell-based
[5] = molecular target: T4, BaEcR (GAL4-EcR DEF with VP16-RXR-USP chimera) (Bemisia tabaci, UniProt A0A6M3RDR8); test: Two-hybrid gene switch assay, luciferase reporter, BaEcR, mouse NIH3T3 cells
T4 sequence (A0A6M3RDR8 115-530): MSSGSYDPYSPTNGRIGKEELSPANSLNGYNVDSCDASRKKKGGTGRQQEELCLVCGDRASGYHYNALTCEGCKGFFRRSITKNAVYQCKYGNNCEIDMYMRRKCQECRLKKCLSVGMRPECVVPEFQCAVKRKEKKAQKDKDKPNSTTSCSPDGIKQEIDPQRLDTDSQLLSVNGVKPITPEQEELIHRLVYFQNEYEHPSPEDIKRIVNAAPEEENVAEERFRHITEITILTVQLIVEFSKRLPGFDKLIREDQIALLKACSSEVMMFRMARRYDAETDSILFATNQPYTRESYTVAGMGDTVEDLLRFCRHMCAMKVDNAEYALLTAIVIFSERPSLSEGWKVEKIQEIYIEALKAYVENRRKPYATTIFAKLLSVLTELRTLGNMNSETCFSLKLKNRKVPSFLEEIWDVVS
T4 sequence (P28702 1-533 partner): T2 sequence (P28702 1-533 partner)

[6] = molecular target: BmEcR (GAL4-EcR DEF with VP16-RXR-USP chimera) (Bombyx mori, UniProt P49881); test: Two-hybrid gene switch assay, luciferase reporter, BmEcR, mouse NIH3T3 cells; format: cell-based
[7] = molecular target: wild-type Drosophila melanogaster EcR (DmEcR; GAL4-EcR DEF with VP16-RXR-USP chimera) (Drosophila melanogaster, UniProt P34021); test: Two-hybrid gene switch assay, luciferase reporter, wild-type DmEcR, mouse NIH3T3 cells; format: cell-based
[8] = molecular target: T5, AmaEcR (GAL4-EcR DEF with VP16-RXR-USP chimera) (Amblyomma americanum, UniProt O44338); test: Two-hybrid gene switch assay, luciferase reporter, AmaEcR, mouse NIH3T3 cells
T5 sequence (O44338 255-570): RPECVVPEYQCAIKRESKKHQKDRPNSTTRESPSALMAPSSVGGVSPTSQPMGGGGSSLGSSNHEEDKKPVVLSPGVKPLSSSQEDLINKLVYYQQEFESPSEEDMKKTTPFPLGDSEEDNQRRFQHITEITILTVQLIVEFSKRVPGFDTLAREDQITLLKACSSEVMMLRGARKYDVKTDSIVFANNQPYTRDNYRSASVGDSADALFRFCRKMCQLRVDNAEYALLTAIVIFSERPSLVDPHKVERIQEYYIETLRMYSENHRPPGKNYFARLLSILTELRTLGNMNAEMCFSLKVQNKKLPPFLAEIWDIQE
T5 sequence (P28702 1-533 partner): T2 sequence (P28702 1-533 partner)

[9] = tested on: NcEcR (GAL4-EcR DEF with VP16-RXR partner); test: Two-hybrid gene switch assay, luciferase reporter, NcEcR, mouse NIH3T3 cells
[10] = EC50, FIG. 14A/14B, GAL4-EcR(DEF)
[11] = EC50, FIG. 13A/13B, GAL4-EcR(DEF) with VP16-RXR-USP chimera
[12] = FIG. 14A/14B, GAL4-EcR(DEF) with VP16-RXR-USP chimera, read-out: EC50
[13] = EC50, FIG. 14A/14B, GAL4-EcR(DEF) with VP16-RXR-USP chimera
[14] = FIG. 16, GAL4-EcR (DEF) / VP16-RXR-USP chimera, read-out: EC50
[15] = EC50, FIG. 16, GAL4-EcR (DEF) / VP16-RXR-USP chimera
[16] = EC50, FIG. 15, GAL4-EcR (DEF) / VP16-RXR-USP chimera

Sequence of wild-type Drosophila melanogaster EcR (DmEcR; GAL4-EcR DEF with VP16-RXR-USP chimera) (P34021 with tags, fused parts or gaps limits assumed): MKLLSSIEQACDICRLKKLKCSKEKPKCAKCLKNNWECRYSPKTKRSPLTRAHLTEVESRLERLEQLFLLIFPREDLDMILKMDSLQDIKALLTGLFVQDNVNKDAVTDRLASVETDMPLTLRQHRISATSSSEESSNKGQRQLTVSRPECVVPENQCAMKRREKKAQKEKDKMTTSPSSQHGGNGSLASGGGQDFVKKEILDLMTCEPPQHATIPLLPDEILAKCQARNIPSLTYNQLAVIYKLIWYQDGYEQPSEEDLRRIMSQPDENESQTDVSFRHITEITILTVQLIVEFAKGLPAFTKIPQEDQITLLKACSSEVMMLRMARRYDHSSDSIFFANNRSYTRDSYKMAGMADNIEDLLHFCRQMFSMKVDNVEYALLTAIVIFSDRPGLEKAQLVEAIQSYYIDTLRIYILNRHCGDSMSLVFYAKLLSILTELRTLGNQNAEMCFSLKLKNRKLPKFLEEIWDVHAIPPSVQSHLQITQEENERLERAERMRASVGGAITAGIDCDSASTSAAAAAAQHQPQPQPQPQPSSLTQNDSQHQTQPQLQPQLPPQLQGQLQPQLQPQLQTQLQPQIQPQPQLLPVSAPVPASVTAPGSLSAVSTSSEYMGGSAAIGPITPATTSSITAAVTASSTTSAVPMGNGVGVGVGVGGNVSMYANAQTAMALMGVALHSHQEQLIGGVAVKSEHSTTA
Sequence of wild-type Aedes aegypti EcR (AaEcR; GAL4-EcR DEF with VP16-RXR-USP chimera) (P49880 with tags, fused parts or gaps limits assumed, change not shown): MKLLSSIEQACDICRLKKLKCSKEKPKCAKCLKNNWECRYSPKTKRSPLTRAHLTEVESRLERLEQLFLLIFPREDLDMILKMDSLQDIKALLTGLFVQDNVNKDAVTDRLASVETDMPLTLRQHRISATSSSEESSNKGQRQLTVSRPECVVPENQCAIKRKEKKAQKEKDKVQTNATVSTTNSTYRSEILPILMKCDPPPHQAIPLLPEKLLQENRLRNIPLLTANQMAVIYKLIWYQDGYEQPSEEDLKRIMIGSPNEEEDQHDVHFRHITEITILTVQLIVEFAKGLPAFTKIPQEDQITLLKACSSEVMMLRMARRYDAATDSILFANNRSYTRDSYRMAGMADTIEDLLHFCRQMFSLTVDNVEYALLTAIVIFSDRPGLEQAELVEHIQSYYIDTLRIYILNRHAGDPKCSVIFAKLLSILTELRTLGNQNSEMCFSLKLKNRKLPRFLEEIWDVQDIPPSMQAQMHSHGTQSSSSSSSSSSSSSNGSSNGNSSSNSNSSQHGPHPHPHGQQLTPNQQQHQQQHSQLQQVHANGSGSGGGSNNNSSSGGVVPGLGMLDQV
Sequence of BmEcR (GAL4-EcR DEF with VP16-RXR-USP chimera) (P49881 other isoform, or with tags, fused parts or gaps, change not shown): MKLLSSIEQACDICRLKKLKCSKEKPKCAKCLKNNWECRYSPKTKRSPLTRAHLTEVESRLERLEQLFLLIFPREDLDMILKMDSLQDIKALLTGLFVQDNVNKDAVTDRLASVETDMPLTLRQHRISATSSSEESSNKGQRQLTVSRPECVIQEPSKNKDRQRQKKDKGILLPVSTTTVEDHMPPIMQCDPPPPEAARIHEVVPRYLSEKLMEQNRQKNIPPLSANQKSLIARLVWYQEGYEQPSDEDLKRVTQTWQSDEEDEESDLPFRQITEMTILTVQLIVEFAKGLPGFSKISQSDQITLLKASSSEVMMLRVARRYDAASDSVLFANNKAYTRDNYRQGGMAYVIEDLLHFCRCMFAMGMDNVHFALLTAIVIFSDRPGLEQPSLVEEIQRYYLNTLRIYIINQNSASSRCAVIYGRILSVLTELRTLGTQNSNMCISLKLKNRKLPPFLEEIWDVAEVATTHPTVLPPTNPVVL

SMILES | EC50 [1, 10] [µM] | EC50 [2] [µM] | EC50 [3, 11] [µM] | EC50 [4, 12] [µM] | EC50 [5, 13] [µM] | EC50 ([6]; read-out: EC50) [µM] | EC50 [7, 13] [µM] | EC50 [8, 13] [µM] | EC50 [4, 14] [µM] | EC50 [5, 15] [µM] | EC50 ([9]; FIG. 14A/14B, GAL4-EcR(DEF)) [µM] | EC50 [8, 15] [µM] | further results
CC(C)(O)CCC(O)C(C)(O)C1CCC2(O)C3=CC(=O)C4CC(O)CCC4(C)C3CCC12C (stereo not drawn) [Compound 2-deoxy-20-hydroxyecdysone] | ~20 | > 33 | ~10 | ~5 | ~15 | > 33 | > 33 | ~5 |  |  |  |  | 
CC(C)(O)CC[C@@H](O)[C@](C)(O)[C@H]1CC[C@@]2(O)C3=CC(=O)[C@@H]4C[C@@H](O)[C@@H](O)C[C@]4(C)[C@H]3CC[C@]12C [Compound 20-hydroxyecdysone] | ~15 |  |  |  | ~5 |  |  |  | 4.38 | 5.35 | ~0.8 | ~0.8 | EC50 ([9]; FIG. 16, GAL4-EcR (DEF)): 0.6 µM; EC50 [7, 14]: ~15 µM
C=C(C)CC[C@@H](O)[C@](C)(O)[C@H]1CC[C@@]2(O)C3=CC(=O)[C@@H]4C[C@@H](O)[C@@H](O)C[C@]4(C)[C@H]3CC[C@]12C [listing 1 of 2 here] |  | ~12 | 0.608 |  |  | 6.28 |  |  |  |  |  |  | 
CC(C)(O)CC[C@@H](O)[C@](C)(O)[C@H]1CC[C@@]2(O)C3=CC(=O)[C@@H]4C[C@H](O)[C@@H](O)C[C@]4(C)[C@H]3CC[C@]12C | > 33 |  | ~10 | ~8 | ~20 |  |  | ~10 |  |  | 4.84 |  | EC50 ([6]; FIG. 13A/13B, BmEcR, GAL4-EcR(DEF) with VP16-RXR-USP chimera, read-out: EC50): > 33 µM; EC50 [7, 12]: ~20 µM
CC(=O)C1CCC2(O)C3=CC(=O)C4CC(O)C(O)CC4(C)C3CCC12C (stereo not drawn) [poststerone] | > 33 |  | > 33 | > 33 | > 33 | > 33 | > 33 | > 33 | 10.5 | > 33 |  | ~10 | EC50 ([1]; EC50, FIG. 16, GAL4-EcR (DEF)): > 33 µM; EC50 [3, 16]: > 33 µM; EC50 ([9]; FIG. 16, GAL4-EcR (DEF)): ~10 µM; EC50 [7, 15]: > 33 µM
CC(C)(O)CC[C@H]1OC(C)(C)O[C@]1(C)[C@H]1CC[C@@]2(O)C3=CC(=O)[C@@H]4C[C@@H](O)[C@@H](O)C[C@]4(C)[C@H]3CC[C@]12C [20-hydroxyecdysone-20,22-acetonide] | > 33 |  | ~12 | ~12 | > 33 |  | > 33 | ~20 | 2.38 | 8.57 | ~10 | ~1 | EC50 ([1]; EC50, FIG. 16, GAL4-EcR (DEF)): ~3 µM; EC50 [3, 16]: ~12 µM; EC50 [7, 15]: ~12 µM
CC(C)CC[C@@H](O)[C@](C)(O)[C@H]1CC[C@@]2(O)C3=CC(=O)[C@]4(O)C[C@@H](O)[C@@H](O)C[C@]4(C)[C@H]3[C@H](O)C[C@]12C [Mur A, muristerone A, reference compound] | ~5 |  | 0.66 |  | 0.829 |  | 0.058 | 0.128 |  |  |  |  | EC50 [4, 13]: 0.023 µM; EC50 ([6]; EC50, FIG. 13A/13B, BmEcR, GAL4-EcR(DEF) with VP16-RXR-USP chimera): 2.98 µM; EC50 ([7]; EC50, FIG. 4C): 0.112 µM
CC(C)(O)CCCC(C)(O)C1CCC2(O)C3=CC(=O)C4CC(O)C(O)CC4(C)C3CCC12C (stereo not drawn) | ~20 | > 33 | ~15 |  | ~10 |  | ~20 | ~10 |  |  | 3.04 |  | EC50 [6]: > 33 µM
C=C(C)CC[C@@H](O)[C@](C)(O)[C@H]1CC[C@@]2(O)C3=CC(=O)[C@@H]4C[C@@H](O)[C@@H](O)C[C@]4(C)[C@H]3CC[C@]12C [listing 2 of 2 here] | 1.4 |  |  |  | 0.382 |  | 0.912 |  |  |  | 0.006 |  | EC50 [4, 13]: 0.024 µM
